Test results as given in the supplement of paper PMC10307832.

How the values were obtained:
Assay in all cases: relative viability (nuclei count vs DMSO), 5 days (fraction); higher = more cells survive
Ruboxistaurin = compound: CN(C)C[C@@H]1CCn2cc(c3ccccc32)C2=C(C(=O)NC2=O)c2cn(c3ccccc23)CCO1 [Ruboxistaurin]
Procedure, shortened: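 Cells of lung cancer lines were placed in 1536-well plates and kept overnight at 37 °C. Pinning then delivered five library-drug doses (not always all listed), spaced by √10, onto plates anchored with vehicle, and the cells were left 5 days without changing medium. One step fixed, permeabilised and stained them with Hoechst, and MetaXpress counted nuclei in 4× images. Viability, as a median over plates, is treated-well nuclei divided by vehicle-well nuclei, with acceptance only at control CV below 25% and at least one doubling.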

Ruboxistaurin + Olaparib = compound: CN(C)C[C@@H]1CCn2cc(c3ccccc32)C2=C(C(=O)NC2=O)c2cn(c3ccccc23)CCO1 [Ruboxistaurin] + O=C(c1cc(Cc2n[nH]c(=O)c3ccccc23)ccc1F)N1CCN(C(=O)C2CC2)CC1 [Olaparib] (partner 8 µM)
Procedure, shortened: (§1)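 Each reported value is a median over duplicate plates. It expresses relative viability: treated-well nuclei count divided by vehicle-well nuclei count. Lung cancer cell lines in 1536-well plates were dosed by pin tool a day after seeding, alone with one drug or with a fixed anchor-drug dose plus five library-drug doses (not always all listed) in √10 steps, and nuclei were counted after 5 days.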

[1] = compound: CN(C)C[C@@H]1CCn2cc(c3ccccc32)C2=C(C(=O)NC2=O)c2cn(c3ccccc23)CCO1 [Ruboxistaurin] + C[C@@H](Oc1cc(-c2cnn(C3CCNCC3)c2)cnc1N)c1c(Cl)ccc(F)c1Cl [Crizotinib] (partner 1 µM)
Procedure, shortened: as §1

[2] = compound: CN(C)C[C@@H]1CCn2cc(c3ccccc32)C2=C(C(=O)NC2=O)c2cn(c3ccccc23)CCO1 [Ruboxistaurin] + Cc1nc(NC(=O)N2CCC[C@H]2C(N)=O)sc1-c1ccnc(C(C)(C)C(F)(F)F)c1 [Alpelisib] (partner 2 µM)
Procedure, shortened: as §1

[3] = compound: CN(C)C[C@@H]1CCn2cc(c3ccccc32)C2=C(C(=O)NC2=O)c2cn(c3ccccc23)CCO1 [Ruboxistaurin] + Cc1nc(Nc2ncc(C(=O)Nc3c(C)cccc3Cl)s2)cc(N2CCN(CCO)CC2)n1 [Dasatinib] (partner 0.075 µM)
Procedure, shortened: as §1

Cell Line	relative viability (Ruboxistaurin; 0.08 µM)	relative viability (Ruboxistaurin; 0.8 µM)	relative viability (Ruboxistaurin; 2.53 µM)	relative viability (Ruboxistaurin; 8 µM)	relative viability (Ruboxistaurin + Olaparib; first compound 0.08 µM)	relative viability (Ruboxistaurin + Olaparib; first compound 0.8 µM)	relative viability (Ruboxistaurin + Olaparib; first compound 2.53 µM)	relative viability (Ruboxistaurin + Olaparib; first compound 8 µM)	relative viability ([1]; first compound 0.08 µM)	relative viability ([1]; first compound 0.8 µM)	relative viability ([1]; first compound 2.53 µM)	relative viability ([1]; first compound 8 µM)	relative viability ([2]; first compound 0.08 µM)	relative viability ([2]; first compound 0.8 µM)	relative viability ([2]; first compound 2.53 µM)	relative viability ([2]; first compound 8 µM)	relative viability ([3]; first compound 0.08 µM)	relative viability ([3]; first compound 0.8 µM)	relative viability ([3]; first compound 2.53 µM)	relative viability ([3]; first compound 8 µM)
NCI-H1437	1	0.914	0.993	1.07	0.661	0.613	0.666	0.712	0.984	0.829	0.958	1.08	1.12	0.868	1.03	1.02	0.438	0.367	0.326	0.392
NCI-H1651	1.02	0.983	1	1.03	0.178	0.193	0.191	0.182	0.882	0.883	0.911	0.911	1.04	0.755	0.974	0.797	0.436	0.339	0.356	0.435
NCI-H1666	1.09	1.02	1.04	0.968	0.832	0.751	0.786	0.764	0.941	0.88	1.09	0.733	1.12	0.809	0.789	0.585	0.82	0.844	0.764	0.92
NCI-H1734	0.989	0.832	1.04	0.816	0.647	0.518	0.601	0.514	0.719	0.514	0.605	0.66	0.768	0.641	0.663	0.57	0.559	0.39	0.437	0.347
NCI-H1755	1.01	1.01	0.974	1.03	0.974	0.853	0.846	0.775	0.932	0.771	0.868	0.87	0.962	0.839	0.897	0.834	0.455	0.387	0.402	0.346
NCI-H1792	1.09	0.78	0.938	0.796	0.517	0.453	0.287	0.414	1.05	0.956	0.966	1.01	0.77	0.62	0.695	0.694	0.829	0.667	0.77	0.781
NCI-H1915	0.984	0.958	0.998	0.962	0.241	0.26	0.268	0.25	0.892	0.829	0.855	0.901	1.07	1.02	1.03	1.09	0.308	0.286	0.267	0.224
NCI-H1944	0.958	0.897	0.932	0.819	0.422	0.353	0.38	0.393	1.15	1.01	1.06	1.03	0.866	0.722	0.716	0.738	0.209	0.204	0.205	0.189
NCI-H1975	0.945	0.834	1.02	0.927	0.882	0.784	0.788	0.713	0.954	0.846	0.954	0.862	0.678	0.565	0.561	0.447	0.381	0.278	0.291	0.257
NCI-H1993	1.18	0.756	0.908	0.696	1.01	0.959	1.19	0.538	0.88	0.726	0.944	0.708	0.615	0.664	0.664	0.628	0.78	0.422	0.561	0.555
NCI-H2009	1.04	0.946	1.06	1.19	0.764	0.593	0.748	0.699	1	0.959	1.06	1.08	1.21	1.14	1.18	1.14	0.341	0.225	0.267	0.225
NCI-H2023	1.02	0.788	1.08	0.735	0.519	0.458	0.447	0.296	0.691	0.588	0.565	0.503	0.633	0.565	0.605	0.415	0.579	0.453	0.523	0.439
NCI-H2085	1.02	0.942	1.07	1.04	0.808	0.703	0.769	0.909	1	0.684	0.874	0.917	0.996	0.899	0.977	0.997	0.204	0.254	0.294	0.219
